The test system of the data set is obese female Zucker rats. The data set is described as follows: Oral daily treatment of obese female Zucker rats for 14 days (body weight, serum lipids, glucose, insulin). It is filed as in vivo, rat. The conditions noted are these: for change in vivo at 100 mg/kg/day / change in vivo at 100 mg/kg: 100 mg/kg/day; for change in vivo at 30 mg/kg/day / change in vivo at 30 mg/kg: 30 mg/kg/day. Further details: HDL-C / Glucose / Insulin / NEFA / BHA / TG / TC / Non HDL-C: unit not given here. As to the method: The dosing vehicle was administered to control animals in parallel experiments.
Body weight was determined daily prior to dosing. Animals were allowed free access to rodent chow and water throughout the study. Blood glucose was determined after a 6-hour fast in the afternoon without anesthesia from a tail vein. Serum was also prepared from a blood sample subsequently obtained from the orbital venous plexus (with O2/CO2 anesthesia) prior to and after one week treatment and used lipid and insulin determinations. At two weeks, blood glucose was again determined after a 6-hour fast without anesthesia from a tail vein. Soon thereafter, animals were sacrificed by CO2 inhalation in the afternoon and cardiac blood serum was collected and assessed for various lipids and insulin.

The mark [1] stands for this setting: Rattus norvegicus, 336 h, obese female Zucker rats, oral daily, fourteen days, read-out: % wt. gain.
[2] abbreviates: Rattus norvegicus, 336 h, obese female Zucker rats, oral daily, fourteen days, read-out: BHA, Percent Change from Pre-treatment.
Where [3] appears, read: Rattus norvegicus, 336 h, obese female Zucker rats, oral daily, fourteen days, read-out: Glucose, Percent Change from Pre-treatment.
The mark [4] stands for this setting: Rattus norvegicus, 336 h, obese female Zucker rats, oral daily, fourteen days, read-out: HDL-C, Percent Change from Pre-treatment.
The mark [5] stands for this setting: Rattus norvegicus, 336 h, obese female Zucker rats, oral daily, fourteen days, read-out: Insulin, Percent Change from Pre-treatment.
The mark [6] stands for this setting: Rattus norvegicus, 336 h, obese female Zucker rats, oral daily, fourteen days, read-out: NEFA, Percent Change from Pre-treatment.
[7] abbreviates: Rattus norvegicus, 336 h, obese female Zucker rats, oral daily, fourteen days, read-out: Non HDL-C, Percent Change from Pre-treatment.
Where [8] appears, read: Rattus norvegicus, 336 h, obese female Zucker rats, oral daily, fourteen days, read-out: TC, Percent Change from Pre-treatment.
Setting [9] is: Rattus norvegicus, 336 h, obese female Zucker rats, oral daily, fourteen days, read-out: TG, Percent Change from Pre-treatment.
Where [10] appears, read: obese female Zucker rats, oral gavage daily 14 days, 100 mg/kg.
Where [11] appears, read: obese female Zucker rats, oral, 14 days, 5 mg/kg/day (Table 1).

The structures appear in SMILES notation. Where two headings read alike, the source gives them in different places.

Regarding `CC(C)(CO)CCCCNC(=O)OCCCCC(C)(C)CO` [Compound M, (6-Hydroxy-5,5-dimethylhexyl)-carbamic acid 6-hydroxy-5,5-dimethylhexyl ester], the change in vivo at 100 mg/kg/day under setting [1] is 20%. Also, the change in vivo at 100 mg/kg under setting [2] amounted to 145%; the change in vivo at 100 mg/kg under setting [3] stood at 2%; the change in vivo at 100 mg/kg under setting [4] is 65%; the change in vivo at 100 mg/kg under setting [5] was 26%; the change in vivo at 100 mg/kg under setting [6] was -53%; the change in vivo at 100 mg/kg under setting [7] was determined as 84%. The change in vivo at 100 mg/kg is 70% under setting [8] and -4% under setting [9].
As for `CN(CCOc1ccc(CC2SC(=O)NC2=O)cc1)c1ccccn1` (centres unmarked) [Compound 2, 5-{4-[2-(Methyl-pyridin-2-yl-amino)-ethoxy]-benzyl}-thiazolidine-2,4-dione, reference compound], the blood glucose levels entry (fasted obese female Zucker rats, oral gavage daily 14 days, 100 mg/kg) was “reduction”. Also, where the note is “fasted obese female Zucker rats, two weeks of treatment, 100 mg/kg”, the “serum insulin relative to pretreatment” value was “reduced”. Under setting [10], the “liver to body weight” value is given as “slightly reduced” and the “weight gain, percent of initial weight after two weeks” value is reported as “greater than 15%”. Under setting [11], this compound displayed a BHA of 15.6 ± 0.6, a Glucose of −11.1 ± 4.5, an HDL-C of −4.6 ± 8.8 and an Insulin of −53.3 ± 5.2. Under setting [11], the NEFA came out at 0.034 ± 0.001, the “Non HDL-C” value was −54.1 ± 5.6, the TC is −50.2 ± 1.8 and the TG is listed as 53 ± 14.
Consider `CC(C)(CO)CCCCOP(=O)(O)OCCCCC(C)(C)CO` [Compound L, phosphoric acid bis(5,5-dimethyl-6-hydroxy-hexyl)ester], for which the change in vivo at 80 mg/kg/day (Rattus norvegicus, 336 h, obese female Zucker rats, oral daily, fourteen days, 80 mg/kg/day, read-out: % wt. gain) amounted to 0%. In addition, the change in vivo at 80 mg/kg by setting is: (Rattus norvegicus, 336 h, obese female Zucker rats, oral daily, fourteen days, 80 mg/kg/day, read-out: BHA, Percent Change from Pre-treatment) 575%; (Rattus norvegicus, 336 h, obese female Zucker rats, oral daily, fourteen days, 80 mg/kg/day, read-out: Glucose, Percent Change from Pre-treatment) 9%; (Rattus norvegicus, 336 h, obese female Zucker rats, oral daily, fourteen days, 80 mg/kg/day, read-out: HDL-C, Percent Change from Pre-treatment) 8%; (Rattus norvegicus, 336 h, obese female Zucker rats, oral daily, fourteen days, 80 mg/kg/day, read-out: Insulin, Percent Change from Pre-treatment) 21%; (Rattus norvegicus, 336 h, obese female Zucker rats, oral daily, fourteen days, 80 mg/kg/day, read-out: NEFA, Percent Change from Pre-treatment) 62%; (Rattus norvegicus, 336 h, obese female Zucker rats, oral daily, fourteen days, 80 mg/kg/day, read-out: Non HDL-C, Percent Change from Pre-treatment) -17%. Further, the change in vivo at 80 mg/kg (Rattus norvegicus, 336 h, obese female Zucker rats, oral daily, fourteen days, 80 mg/kg/day, read-out: TC, Percent Change from Pre-treatment) was -4% and the change in vivo at 80 mg/kg (Rattus norvegicus, 336 h, obese female Zucker rats, oral daily, fourteen days, 80 mg/kg/day, read-out: TG, Percent Change from Pre-treatment) was -13%.
For `CC(C)(CCCCCCOCCCCCCC(C)(C)COP(=O)(O)O)COP(=O)(O)O` [Compound C], under setting [1], the change in vivo at 30 mg/kg/day turned out to be 13%. In addition, the change in vivo at 30 mg/kg reads like this: under setting [2], 123%; under setting [3], 9%; under setting [4], -19%; under setting [5], 11%; under setting [6], -33%; under setting [7], 52%. The change in vivo at 30 mg/kg is, setting by setting: under setting [8], 6%; under setting [9], 22%.
On to `CC(C)(CO)CCCCNCCCCC(C)(C)CO` [Compound H, 6-(6-Hydroxy-5,5-dimethylhexylamino)-2,2-dimethylhexan-1-ol], for which, where the note is “Rattus norvegicus, 336 h, obese female Zucker rats, oral daily, fourteen days, 53 mg/kg/day, read-out: % wt. gain”, the change in vivo at 53 mg/kg/day came out at 16%. The change in vivo at 53 mg/kg is, setting by setting: (Rattus norvegicus, 336 h, obese female Zucker rats, oral daily, fourteen days, 53 mg/kg/day, read-out: BHA, Percent Change from Pre-treatment) 48%; (Rattus norvegicus, 336 h, obese female Zucker rats, oral daily, fourteen days, 53 mg/kg/day, read-out: Glucose, Percent Change from Pre-treatment) -23%; (Rattus norvegicus, 336 h, obese female Zucker rats, oral daily, fourteen days, 53 mg/kg/day, read-out: HDL-C, Percent Change from Pre-treatment) 16%; (Rattus norvegicus, 336 h, obese female Zucker rats, oral daily, fourteen days, 53 mg/kg/day, read-out: Insulin, Percent Change from Pre-treatment) -49%; (Rattus norvegicus, 336 h, obese female Zucker rats, oral daily, fourteen days, 53 mg/kg/day, read-out: NEFA, Percent Change from Pre-treatment) -55%; (Rattus norvegicus, 336 h, obese female Zucker rats, oral daily, fourteen days, 53 mg/kg/day, read-out: Non HDL-C, Percent Change from Pre-treatment) -10%. Besides, the change in vivo at 53 mg/kg (Rattus norvegicus, 336 h, obese female Zucker rats, oral daily, fourteen days, 53 mg/kg/day, read-out: TC, Percent Change from Pre-treatment) amounted to 5% and the change in vivo at 53 mg/kg (Rattus norvegicus, 336 h, obese female Zucker rats, oral daily, fourteen days, 53 mg/kg/day, read-out: TG, Percent Change from Pre-treatment) was -32%.
As to `CC(C)(CCCCOCCCCC(C)(C)COP(=O)(O)O)COP(=O)(O)O.N.N.N.N` [Compound A, Phosphoric acid mono-16-(5,5-dimethyl-6-phosphonooxyhexyloxy)-2,2-dimethylhexyl] ester, tetraammonium salt], the change in vivo at 10 mg/kg/day (Rattus norvegicus, 336 h, obese female Zucker rats, oral daily, fourteen days, 10 mg/kg/day, read-out: % wt. gain) was found to be 9%. For the same compound, the change in vivo at 10 mg/kg by setting is: (Rattus norvegicus, 336 h, obese female Zucker rats, oral daily, fourteen days, 10 mg/kg/day, read-out: BHA, Percent Change from Pre-treatment) 102%; (Rattus norvegicus, 336 h, obese female Zucker rats, oral daily, fourteen days, 10 mg/kg/day, read-out: Glucose, Percent Change from Pre-treatment) -9%; (Rattus norvegicus, 336 h, obese female Zucker rats, oral daily, fourteen days, 10 mg/kg/day, read-out: HDL-C, Percent Change from Pre-treatment) 179%; (Rattus norvegicus, 336 h, obese female Zucker rats, oral daily, fourteen days, 10 mg/kg/day, read-out: Insulin, Percent Change from Pre-treatment) -7%; (Rattus norvegicus, 336 h, obese female Zucker rats, oral daily, fourteen days, 10 mg/kg/day, read-out: NEFA, Percent Change from Pre-treatment) 14%; (Rattus norvegicus, 336 h, obese female Zucker rats, oral daily, fourteen days, 10 mg/kg/day, read-out: Non HDL-C, Percent Change from Pre-treatment) 67%. Also, the change in vivo at 10 mg/kg reads like this: (Rattus norvegicus, 336 h, obese female Zucker rats, oral daily, fourteen days, 10 mg/kg/day, read-out: TC, Percent Change from Pre-treatment) 115%; (Rattus norvegicus, 336 h, obese female Zucker rats, oral daily, fourteen days, 10 mg/kg/day, read-out: TG, Percent Change from Pre-treatment) 11%. Further, the change in vivo at 30 mg/kg/day under setting [1] is 3%. In addition, the change in vivo at 30 mg/kg reads like this: under setting [2], 141%; under setting [3], 1%; under setting [4], 228%; under setting [5], -16%; under setting [6], -32%; under setting [7], 71%. Moreover, the change in vivo at 30 mg/kg reads like this: under setting [8], 164%; under setting [9], -31%. Under setting [1], the change in vivo at 100 mg/kg/day was 4%. The change in vivo at 100 mg/kg is 257% under setting [2]; 6% under setting [3]; 559% under setting [4]; 0% under setting [5]; -53% under setting [6]; 11% under setting [7]. Also, under setting [8], the change in vivo at 100 mg/kg came to 287%.
For `CC(C)(CO)CCCCNC(=O)CCCCC(C)(C)CO` [Compound J, 7-Hydroxy-6,6-dimethylheptanoic acid (6-hydroxy-5,5-dimethylhexyl)-amide], under setting [1], the change in vivo at 30 mg/kg/day stood at 11%. In addition, the change in vivo at 30 mg/kg was 21% under setting [2]; 18% under setting [3]; 20% under setting [4]; -41% under setting [5]; -38% under setting [6]; -7% under setting [7]. In addition, the change in vivo at 30 mg/kg by setting is: under setting [8], 9%; under setting [9], -10%.

These data come from US20030236212A1, “Functionalized long chain derivatives as acyl coenzyme-A mimics, compositions thereof, and methods of cholesterol management and related uses” (priority 2002, published 2003).
